Source: publication PMC12415691 (RSC Advances, 2025)

Molecular target: T1, rabbit ALOX15 (Oryctolagus cuniculus, UniProt P12530)
T1 sequence (P12530 1-663): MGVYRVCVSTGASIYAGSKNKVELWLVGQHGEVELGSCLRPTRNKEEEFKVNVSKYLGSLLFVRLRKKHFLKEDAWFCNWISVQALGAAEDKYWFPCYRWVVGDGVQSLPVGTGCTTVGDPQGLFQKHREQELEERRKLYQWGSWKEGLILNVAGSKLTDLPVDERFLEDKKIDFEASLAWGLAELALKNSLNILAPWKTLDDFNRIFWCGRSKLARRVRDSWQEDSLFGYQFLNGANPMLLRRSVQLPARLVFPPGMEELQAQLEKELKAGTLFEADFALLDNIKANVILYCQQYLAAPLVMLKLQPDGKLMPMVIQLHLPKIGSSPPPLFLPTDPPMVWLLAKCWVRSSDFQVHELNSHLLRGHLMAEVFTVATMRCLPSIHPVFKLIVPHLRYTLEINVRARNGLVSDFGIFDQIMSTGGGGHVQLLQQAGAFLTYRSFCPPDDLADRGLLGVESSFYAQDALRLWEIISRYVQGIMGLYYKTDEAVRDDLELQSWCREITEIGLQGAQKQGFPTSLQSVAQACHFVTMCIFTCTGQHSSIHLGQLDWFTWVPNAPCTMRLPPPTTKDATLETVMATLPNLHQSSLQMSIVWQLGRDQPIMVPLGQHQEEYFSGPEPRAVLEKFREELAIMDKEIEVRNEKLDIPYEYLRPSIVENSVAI
Experiment: Kinetic measurements of LA/AA oxygenation with inhibitor
Assay type: biochemical
Conditions: best fit of kinetic data

mode of inhibition of AA oxygenation (AA as substrate): uncompetitive mode of inhibition
mode of inhibition of LA oxygenation (LA as substrate): uncompetitive mode of inhibition
Compound: CCCCCCCCOC(=O)NS(=O)(=O)Nc1ccc(-c2cc3ccccc3[nH]2)cc1OC [compound 3, Octyl (N-(4-(1H-indol-2-yl)-2-methoxyphenyl)sulfamoyl)-carbamate]
